Results on 15 molecules are retold here after the RepoRT retention time repository (doi:10.1021/ac300829f).

The data set can be described thus: RP, Thermo Scientific Hypersil GOLD, 150 × 2.1 mm, 1.9 µm, 0.5 mL/min, estimated dead time 0.66 min; A: water + 0.1% formic acid, pH 3; B: acetonitrile + 0.1% formic acid, pH 3; gradient (min/%B) 0/0 2/0 13/100 15.5/100 19/0. Particulars: stereoisomer not certain.
`CN(C)c1nc2c(ncn2C2OC(CO)C(O)C2O)c(=O)[nH]1` (stereo not given) [N,N-dimethylguanosine]: the LC retention time is 4.8 min.

With `O=c1[nH]c(=O)c2ncn(C3OC(CO)C(O)C3O)c2[nH]1` (stereo not given) [xanthosine], the LC retention time is 4.3 min.

Regarding `C[n+]1cccc(C(=O)[O-])c1` [trigonelline], the LC retention time is 0.9 min.

As to `O=C(O)C1CCCN1` (stereo not given) [proline], the LC retention time was 1.1 min.

As to `O=c1[nH]cnc2nc[nH]c12` [hypoxanthine], the LC retention time was 1.1 min.

For the molecule `CCCCCCCCC=CCCCCCCCC(=O)OCC(O)COP(=O)([O-])OCC[N+](C)(C)C` (stereo not given) [1-oleoylglycerophosphocholine LysoPC(18:1)], the LC retention time is 12 min.

In the case of `NCCc1cnc[nH]1` [histamine], the LC retention time was 0.8 min.

On to `Cc1cc2c(cc1C)N(CC(O)C(O)C(O)COP(=O)(O)O)c1[nH]c(=O)[nH]c(=O)c1N2` (stereo not given) [FMNH], for which the LC retention time was 5.7 min.

In the case of `CC(C)(CCC(=O)O)C(=O)O` [2,2-dimethylglutaricacid], the LC retention time is 6 min.

For `CCCCCCCCCC(=O)OC(CC(=O)[O-])C[N+](C)(C)C` (stereo not given) [decanoylcarnitine], the LC retention time is 9 min.

Consider `OCC1NCC(O)C(O)C1OC1OC(CO)C(O)C(O)C1O` (stereo not given) [glucopyranosylmoranoline], for which the LC retention time was 4.5 min.

Consider `NC(CCCC(=O)O)C(=O)O` (stereo not given) [2-aminoadipic acid], for which the LC retention time was 1.1 min.

`CN1CC(=O)NC1=N` [creatinine]: the LC retention time is 0.9 min.

In the case of `Nc1ncnc2c1ncn2C1OC(CO)C(O)C1O` (stereo not given) [adenosine], the LC retention time is 1.1 min.

Consider `N[C@@H](Cc1c[nH]c2ccccc12)C(=O)O` [L-tryptophan], for which the LC retention time was 0.8 min.
